13 molecules from ChEMBL document CHEMBL4311960, “Two optimized antimicrobial peptides with therapeutic potential for clinical antibiotic-resistant Staphylococcus aureus” (Eur J Med Chem, 2019) can be followed below.

In data set [1] the test system is Staphylococcus aureus. Briefly: Antibacterial activity against Staphylococcus aureus ATCC 25923 assessed as reduction in bacterial growth incubated for 24 hrs by serial dilution method. It counts as functional. The note with it: ATCC 25923, 24 h.
Data set [2] has as its system Streptococcus mutans. Put plainly: Antibacterial activity against Streptococcus mutans UA159 assessed as reduction in bacterial growth incubated for 24 hrs by serial dilution method. The format is functional. The note with it: UA159, 24 h.
The subject of data set [3] is Staphylococcus aureus. Put plainly: Antibacterial activity against methicillin-resistant Staphylococcus aureus ATCC 18466 assessed as reduction in bacterial growth incubated for 24 hrs by serial dilution method. It counts as functional. The note with it: ATCC 18466, 24 h.
For data set [4], the system named is Candida albicans. Put plainly: Antifungal activity against Candida albicans ATCC 5314 assessed as reduction in fungal growth incubated for 24 hrs by serial dilution method. The format is functional. The following applies: ATCC 5314, 24 h.
For data set [5], the system named is Streptococcus sanguinis. Briefly: Antibacterial activity against Streptococcus sanguinis ATCC 10556 assessed as reduction in bacterial growth incubated for 24 hrs by serial dilution method. The format is functional. The note with it: ATCC 10556, 24 h.
Data set [6] deals with Erythrocyte. Put plainly: Hemolytic activity in mouse Erythrocyte assessed as HC10 incubated for 1 hr. It counts as ADME, cell-based.
Data set [7] can be described thus: Hemolytic activity in mouse Erythrocyte assessed as HC50 incubated for 1 hr. The format is ADME, cell-based. The following applies: mouse erythrocytes.
Data set [8] is described as follows: Hemolytic activity in mouse Erythrocyte at 640 ug/ml incubated for 1 hr relative to control. It counts as ADME, cell-based. The following applies: mouse erythrocytes, read-out: %max.
The nature of data set [9]: Cytotoxicity against human HEK293T cells assessed as cell viability at 640 ug/ml incubated for 48 hrs by MTT assay relative to control. The note with it: read-out: Activity. It counts as cell-based, HEK-293T. In general terms: Tetrazolium dyes change colour on reduction, which living cells bring about.
Data set [10] is described as follows: Cytotoxicity against human HEK293T cells assessed as cell viability at 5 to 640 ug/ml incubated for 48 hrs by MTT assay relative to control. The note with it: read-out: Activity. The format is cell-based, HEK-293T.

Values after ≈ are worked out from the molar mass of the structure shown.

As a reminder, the MIC is the smallest concentration in the dilution series that meets the test's criterion for growth inhibition. One may read the HC50 as the concentration giving 50% haemolysis. For H-WVRKVRRWWKKVKKVVKK-NH2, the MIC in data set [1] (read-out: MIC), in data set [2] (read-out: MIC), in [3] (read-out: MIC), in [4] (read-out: MIC) and in data set [5] (read-out: MIC) was under 64 µg/mL in each case. The HC10 in data set [6] stood at 80.04 µg/mL. For the same molecule, the HC50 at 1 h in data set [7] was over 640 µg/mL. Further, in [8], the hemolysis at 1 h, 640 ug/ml was determined as 25.5%. In addition, the viability at 48 h, 640 ug/ml in [9] was 65.7%.
Consider H-YIRKINRHFKTLKKNLKK-NH2, for which the MIC in data set [1] (read-out: MIC) is under 64 µg/mL; in data set [2], over 64 µg/mL; in [3] (read-out: MIC) it was under 64 µg/mL; in data set [4] (read-out: MIC) it was under 64 µg/mL; in data set [5] (read-out: MIC) it was under 64 µg/mL. Further, in [6], the HC10 was over 640 µg/mL. Further, the HC50 at 1 h in data set [7] was over 640 µg/mL. Also, the hemolysis at 1 h, 640 ug/ml in data set [8] worked out at 8.07%. Also, the viability at 48 h in data set [10] was in the range of 70 to 80%.
Regarding H-VWKRWVVRKWKWVKKKVKKK-NH2, the MIC is under 64 µg/mL in [1] (read-out: MIC); under 64 µg/mL in data set [2] (read-out: MIC); under 64 µg/mL in data set [3] (read-out: MIC); 64 µg/mL in data set [4] (read-out: MIC); over 64 µg/mL in data set [5]. The HC10 in data set [6] was 57.24 µg/mL. In data set [7], the HC50 at 1 h is over 640 µg/mL. For the same molecule, the hemolysis at 1 h, 640 ug/ml in [8] amounted to 31%. Further, the viability at 48 h, 640 ug/ml in data set [9] stood at 58.9%.
Turning to H-LYKRYILRKFKFLKKKLKKK-NH2, the MIC in [1] (read-out: MIC) is under 64 µg/mL; in [2], over 64 µg/mL; in data set [3] (read-out: MIC), 64 µg/mL; in data set [4], over 64 µg/mL; in data set [5] it was over 64 µg/mL. Further, the HC10 in data set [6] was over 640 µg/mL. The HC50 at 1 h in data set [7] was over 640 µg/mL. The hemolysis at 1 h, 640 ug/ml in data set [8] turned out to be 9.34%. Besides, the viability at 48 h in [10] is 70 to 80%.
`Clc1ccc(COC(Cn2ccnc2)c2ccc(Cl)cc2Cl)cc1` (configuration not stated) [ECONAZOLE]: the MIC in data set [4] (read-out: MIC) stood at 4 µg/mL (≈ 10.5 µM).
Turning to H-WYERLINRKFKWLKGRLSKK-NH2, the MIC in data set [1] is over 64 µg/mL; in [2] it was over 64 µg/mL; in data set [3] (read-out: MIC), under 64 µg/mL; in data set [4] (read-out: MIC) it was under 64 µg/mL; in data set [5] (read-out: MIC) it was under 64 µg/mL. In [6], the HC10 was found to be 178.82 µg/mL. Also, in data set [7], the HC50 at 1 h is over 640 µg/mL. In data set [8], the hemolysis at 1 h, 640 ug/ml worked out at 17.3%. Also, the viability at 48 h in [10] is 70 to 80%.
Regarding H-YFRTIRRFFKKLFKTLKK-NH2, the MIC in data set [1] (read-out: MIC) is 64 µg/mL; in data set [2] (read-out: MIC) it was under 64 µg/mL; in data set [3] (read-out: MIC) it was 64 µg/mL; in data set [4] (read-out: MIC) it was 64 µg/mL; in data set [5] (read-out: MIC), under 64 µg/mL. Moreover, the HC10 in [6] is 640 µg/mL. In data set [7], the 50% haemolytic concentration (HC50) at 1 h is over 640 µg/mL. Besides, in data set [8], the hemolysis at 1 h, 640 ug/ml came to 10.3%. For the same molecule, the viability at 48 h in data set [10] lay in the range of 70 to 80%.
For H-YEIKINRHFKTLKKNLKK-NH2, the MIC is under 64 µg/mL in data set [1] (read-out: MIC); over 64 µg/mL in data set [2]; under 64 µg/mL in [3] (read-out: MIC); under 64 µg/mL in data set [4] (read-out: MIC); over 64 µg/mL in [5]. In data set [6], the HC10 is over 640 µg/mL. The HC50 at 1 h in data set [7] is over 640 µg/mL. Moreover, in [8], the hemolysis at 1 h, 640 ug/ml amounted to 7.94%. Further, the viability at 48 h in data set [10] was in the range of 70 to 80%.
Regarding H-YIRKIRRFFKKLNKNLKK-NH2, the MIC in [1] is over 64 µg/mL; in data set [2] (read-out: MIC), under 64 µg/mL; in data set [3] (read-out: MIC), under 64 µg/mL; in data set [4] (read-out: MIC), under 64 µg/mL; in data set [5], over 64 µg/mL. Further, the HC10 in data set [6] is over 640 µg/mL. In data set [7], the HC50 at 1 h was over 640 µg/mL. Further, in data set [8], the hemolysis at 1 h, 640 ug/ml amounted to 9.86%. The viability at 48 h in [10] lay within 70 to 80%.
For H-YIRKIRRFFKTLNKNLKK-NH2, the MIC was over 64 µg/mL in data set [1]; 32 µg/mL in [2] (read-out: MIC); under 64 µg/mL in data set [3] (read-out: MIC); under 64 µg/mL in data set [4] (read-out: MIC); under 64 µg/mL in data set [5] (read-out: MIC). Further, in data set [6], the HC10 was over 640 µg/mL. Further, in [7], the HC50 at 1 h is over 640 µg/mL. The hemolysis at 1 h, 640 ug/ml in data set [8] worked out at 7.17%. Besides, in data set [10], the viability at 48 h is 70 to 80%.
Consider `CN[C@H](CC(C)C)C(=O)N[C@H]1C(=O)N[C@@H](CC(N)=O)C(=O)N[C@H]2C(=O)N[C@H]3C(=O)N[C@H](C(=O)N[C@H](C(=O)O)c4cc(O)cc(O)c4-c4cc3ccc4O)[C@H](O)c3ccc(c(Cl)c3)Oc3cc2cc(c3O[C@@H]2O[C@H](CO)[C@@H](O)[C@H](O)[C@H]2O[C@H]2C[C@](C)(N)[C@H](O)[C@H](C)O2)Oc2ccc(cc2Cl)[C@H]1O` [VANCOMYCIN], for which the MIC in data set [2] (read-out: MIC) is 2 µg/mL (≈ 1.38 µM); in data set [5] (read-out: MIC), 1 µg/mL (≈ 0.69 µM).
As to H-SYEIKINRHFKTLKKNLKKK-NH2, the MIC in data set [1] (read-out: MIC) was under 64 µg/mL; in [2] (read-out: MIC), under 64 µg/mL; in [3], over 64 µg/mL; in data set [4], over 64 µg/mL; in data set [5], over 64 µg/mL. Further, the HC10 in data set [6] was over 640 µg/mL. The HC50 at 1 h in [7] was over 640 µg/mL. For the same molecule, the hemolysis at 1 h, 640 ug/ml in [8] came to 6.78%. In [10], the viability at 48 h was 70 to 80%.
On to H-YIRKIRRFFKKRFKFRKK-NH2, for which the MIC amounted to 64 µg/mL in data set [1] (read-out: MIC); 16 µg/mL in [2] (read-out: MIC); 32 µg/mL in [3] (read-out: MIC); 32 µg/mL in [4] (read-out: MIC); 64 µg/mL in [5] (read-out: MIC). In addition, the HC10 in [6] was over 640 µg/mL. Moreover, the HC50 at 1 h in data set [7] was over 640 µg/mL. Further, the hemolysis at 1 h, 640 ug/ml in [8] was determined as 8.21%. Besides, the viability at 48 h in [10] is 70 to 80%.
